Reference: patent US4897503A, “1,1,2-triaryl-1-alkene derivatives” (Taiho Pharmaceutical, priority 1986, dated 1990)
Like-named read-outs stand apart in the source and are kept apart here.

How the values were obtained:
[1] = system: experimental hormone-dependent tumor cells; details: vs tamoxifen; cited from earlier work
[2] = vs tamoxifen; cited from earlier work
[3] = Acute toxicity test (oral and intraperitoneal, Up-and-Down method); parameters: species or system mouse (ddY strain); details: mouse, in vivo, 6-week old male ddY mice, 3 weeks observation
Procedure: The acute oral and intraperitoneal toxicity of these compounds were investigated in 6-week old male ddY strain mice. In the oral toxicity study, each test compound was suspended or dissolved in an aqueous solution containing 0.5% of carboxymethylcellulose and 0.5% of Tween 80 and was administered at a dose of 4 ml/100 g. In the intraperitoneal toxicity study, each test compound was suspended or dissolved in physiological saline containing 0.5% of Tween 80 and was administered at a dose of 2 ml/100 g.

[4] = system: uterus; assay: Anti-uterotrophic effect (inhibition of uterine weight gain in immature rats); format: in vivo, rat (Sprague-Dawley, female; details: Rattus norvegicus, 504 h, read-out: ED50 (50% inhibition of uterine weight gain)
Source text: The antiuterotophic activity of each test compound was studied using immature 4-week-old female Sprague-Dawley rats, according to the method described in Methods in Hormone Research, vol. 2, Academic Press p. 707 (1962).
Each test compound was suspended in a vehicle solution (i.e., an aqueous solution containing 0.5% of carboxymethylcellulose and 0.5% of Tween 80) and the suspension was orally administered using a stomach tube 6 times a week for 3 consecutive weeks at various doses. The animals were autopsied one day after the final administration and the uterus was weighed.
The percent inhibition of uterine weight gain was calculated by the formula
Percent inhibition=(A-C)×100/(A-B)
where A is the mean value of the uterine weight of the control which received the vehicle solution, B is that of the ovariectomized control (i.e., animals ovariectomized at the age of four weeks and thereafter treated with the vehicle solution for 3 weeks) and C is that of the animals which received each dose of each test compound. Then, the dose of each test compound causing a 50% inhibition (ED50) was calculated from the dose-response curve.

[5] = system: mammary cancer induced by 7,12-dimethylbenzanthracene (DMBA); assay: Effect on DMBA-induced mammary cancer: inhibition of appearance of new tumor; format: in vivo, rat (Sprague-Dawley, female); details: for Inhibition of appearance of new tumor: 6 times a week for 3 weeks, 15 animals
Procedure: (§1) The experiments were performed in 7-week-old female Sprague-Dawley rats bearing mammary cancer which had been induced by oral administration of 7,12-dimethylbenzanthracene (DMBA) according to the method described in European Journal of Cancer and Clinical Oncology 11, 571 (1975) and Cancer Research 26, 2169 (1966). The inhibitory effect of each test compound on this cancer was investigated.
(§2) Each test compound was suspended in an aqueous solution containing 0.5% of carboxymethylcellulose and 0.5% of Tween 80 and the suspension was orally administered by gastric gavage 6 times a week for 3 consecutive weeks. Once a week and on the 21st day, the number of induced tumors was counted and the surface area of tumors was measured. The percent increase in surface area relative to the surface area on the first day of administration was calculated and the result was compared with the result in the control group. The inhibitory effects on the appearance of new tumor are shown in Table 7 and the inhibitory effects on the enlargement of the tumor are shown in Table 8. The inhibition of appearance of new tumor (%) was calculated according to the formula: 100-(N/M)×100 where N is the number of newly appeared tumors in test group and M is the number of newly appeared tumors in control group.

[6] = system: mammary cancer induced by 7,12-dimethylbenzanthracene (DMBA); assay: Effect on DMBA-induced mammary cancer: inhibition of tumor growth; format: in vivo, rat (Sprague-Dawley, female); details: 6 times a week for 3 weeks, 15 animals
Procedure: as §1, §2

[7] = ip, intraperitoneal, read-out: LD50 intraperitoneal

Structure (SMILES): CC/C(=C(\c1ccc(O)cc1)c1ccc(OCCN(C)C)cc1)c1ccccc1 [4-hydroxytamoxifen]
- antitumor activity in vitro, in words [1]: more potent antitumor activity than tamoxifen
- effectiveness in vivo, in words [2]: inferior in effectiveness to tamoxifen

Structure (SMILES): CC/C(=C(/c1ccc(OCCN(C)C)cc1)c1ccc(OP(=O)(O)O)cc1)c1ccccc1 [Compound 1, (E)-4-[1-[4-[2-(Dimethylamino)ethoxy]phenyl]-2-phenyl-1-butenyl]-phenyl phosphate]
- LD50 at 504 h [3, 7]: 223 mg/kg
- LD50 at 504 h ([3]; oral, read-out: LD50 oral): > 2000 mg/kg
- ED50 ([4]; po): 0.076 mg/kg
- Inhibition of appearance of new tumor ([5]; 0.1 mg/kg/day p.o.): 56.7%
- Inhibition of appearance of new tumor ([5]; 0.3 mg/kg/day p.o.): 54.7%
- Inhibition of tumor growth (on day 21) ([6]; 0.1 mg/kg/day p.o.): 26.5%
- Inhibition of tumor growth (on day 21) ([6]; 0.3 mg/kg/day p.o.): 42.3%

Structure (SMILES): CCC(=C(c1ccc(OCCN(C)C)cc1)c1ccc(OP(=O)(O)O)cc1)c1ccc(C(C)C)cc1 [Compound 5]
- LD50 at 504 h [3, 7]: 354 mg/kg
- LD50 at 504 h ([3]; oral, read-out: LD50 oral): > 2000 mg/kg
- ED50 ([4]; po): 0.097 mg/kg
- Inhibition of appearance of new tumor ([5]; 0.1 mg/kg/day p.o.): 46.7%
- Inhibition of appearance of new tumor ([5]; 0.3 mg/kg/day p.o.): 48.5%
- Inhibition of tumor growth (on day 21) ([6]; 0.1 mg/kg/day p.o.): 26.5%
- Inhibition of tumor growth (on day 21) ([6]; 0.3 mg/kg/day p.o.): 50.2%

Structure (SMILES): CCOc1ccc(/C(CC)=C(/c2ccc(OCCN(C)C)cc2)c2ccc(OP(=O)(O)O)cc2)cc1 [Compound 7]
- LD50 at 504 h [3, 7]: 223 mg/kg
- LD50 at 504 h ([3]; oral, read-out: LD50 oral): > 2000 mg/kg
- ED50 ([4]; po): 0.026 mg/kg

Structure (SMILES): CC/C(=C(\c1ccccc1)c1ccc(OCCN(C)C)cc1)c1ccccc1 [Tamoxifen, reference compound]
- LD50 at 504 h [3, 7]: 177 mg/kg
- LD50 at 504 h ([3]; oral, read-out: LD50 oral): > 2000 mg/kg
- ED50 ([4]; oral, 6 times a week for 3 weeks, immature female SD rats, 7 animals): 0.203 mg/kg
- inhibition of appearance of new mammary cancer, in words ([5]; 0.1 mg/kg/day): ineffective
- Inhibition of appearance of new tumor ([5]; 0.1 mg/kg/day p.o.): -7.7%
- Inhibition of appearance of new tumor ([5]; 0.3 mg/kg/day p.o.): 21.0%
- Inhibition of tumor growth (on day 21) ([6]; 0.1 mg/kg/day p.o.): 4.7%
- Inhibition of tumor growth (on day 21) ([6]; 0.3 mg/kg/day p.o.): 39.0%
